# According to ChEMBL document CHEMBL3886519, “Pyrazolo[1,5a]pyrimidine derivatives as IRAK4 modulators” (2016):
# Experiments:
# [1] = biological target: Tyrosine-protein kinase SYK (Homo sapiens, UniProt P43405); assay: In vitro SYK Kinase Assay: SYK activity is measured by phosphorylation of a peptide substrate (Biotin-[…]) with [gamma-33P] ATP. The enzyme reaction was conducted at 20 uM ATP with 0.05 uCi [gamma-33P]ATP (2 uCi for 40 ul assay) and 10 uM peptide substrate at final volume of 40 ul in buffer containing 50 mM Hepes, pH 7.2, 1 mM dithiothreitol, 10 mM MgCl2, 100 uM Na3VO4, 0.1% BSA and 10% DMSO. The enzyme assay was carried out with human full length SYK in the presence or absence of ten compound concentrations. SYK and compound were pre-incubated for 10 minutes. Then, the enzymatic reaction was initiated by addition of ATP and peptide substrate. The reaction mixture was incubated at room temperature for 30 minutes. At the end of incubation, the reaction was terminated by transferring 25 ul of the reaction mixture to 100 ul of 10% streptavidin slurry containing 100 mM EDTA. The reaction product was captured on the affinity resin and sequentially washed on a filtration plate (Millipore, MABVNOB50) with 2M NaCl, 2M M NaCl in 1% phosphoric acid and water to remove free radio nucleotide. Then the incorporation of 33P into peptide substrate was quantified on a microplate scintillation counter.
# [2] = biological target: T1, Interleukin-1 receptor-associated kinase 4 (Homo sapiens, UniProt Q9NWZ3); assay: (§1) In vitro IRAK-1 and IRAK-4 Assay: Purified recombinant IRAK-4 protein was incubated with 250 uM synthetic peptide([…]) in 30 ul of kinase buffer including (20 mM MOPS pH7.2, 25 mM beta glycerol phosphate, 5 mM EGTA, 1 mM sodium orthovanadate, 1 mM DTT, 50 uM ATP, 20 mM MgCl2, 10 uCi gamma-33P, 0.1% BSA) for the indicated time. For purified recombinant IRAK-1 protein kinase assay, 50 uM ATP was used. A 25 ul aliquot of the reaction mixture was transferred on to p81 phosphocellulose squares (Upstate Biotechnology, Lake Placid, N.Y.). The assay squares were washed three times with 0.75% phosphoric acid and once with acetone. Enzyme activity was measured by determining the bound radioactivity by liquid scintillation counting.
# T1 sequence (Q9NWZ3 whole entry): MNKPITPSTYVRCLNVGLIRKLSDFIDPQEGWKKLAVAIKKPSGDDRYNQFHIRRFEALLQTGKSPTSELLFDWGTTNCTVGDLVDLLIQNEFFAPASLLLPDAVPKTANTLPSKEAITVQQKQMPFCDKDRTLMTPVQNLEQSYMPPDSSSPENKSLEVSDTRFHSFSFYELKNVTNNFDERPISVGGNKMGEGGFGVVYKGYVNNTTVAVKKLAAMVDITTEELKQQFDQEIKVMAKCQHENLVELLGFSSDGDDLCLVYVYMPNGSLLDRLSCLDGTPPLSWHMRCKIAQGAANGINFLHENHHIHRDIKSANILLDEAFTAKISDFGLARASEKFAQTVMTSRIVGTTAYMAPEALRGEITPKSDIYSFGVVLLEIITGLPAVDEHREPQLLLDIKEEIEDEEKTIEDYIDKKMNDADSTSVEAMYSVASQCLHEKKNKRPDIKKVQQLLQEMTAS
# [3] = biological target: Interleukin-1 receptor-associated kinase 1 (Homo sapiens, UniProt P51617); assay: as §1
# Chain of Interleukin-1 receptor-associated kinase 1 (P51617 whole entry): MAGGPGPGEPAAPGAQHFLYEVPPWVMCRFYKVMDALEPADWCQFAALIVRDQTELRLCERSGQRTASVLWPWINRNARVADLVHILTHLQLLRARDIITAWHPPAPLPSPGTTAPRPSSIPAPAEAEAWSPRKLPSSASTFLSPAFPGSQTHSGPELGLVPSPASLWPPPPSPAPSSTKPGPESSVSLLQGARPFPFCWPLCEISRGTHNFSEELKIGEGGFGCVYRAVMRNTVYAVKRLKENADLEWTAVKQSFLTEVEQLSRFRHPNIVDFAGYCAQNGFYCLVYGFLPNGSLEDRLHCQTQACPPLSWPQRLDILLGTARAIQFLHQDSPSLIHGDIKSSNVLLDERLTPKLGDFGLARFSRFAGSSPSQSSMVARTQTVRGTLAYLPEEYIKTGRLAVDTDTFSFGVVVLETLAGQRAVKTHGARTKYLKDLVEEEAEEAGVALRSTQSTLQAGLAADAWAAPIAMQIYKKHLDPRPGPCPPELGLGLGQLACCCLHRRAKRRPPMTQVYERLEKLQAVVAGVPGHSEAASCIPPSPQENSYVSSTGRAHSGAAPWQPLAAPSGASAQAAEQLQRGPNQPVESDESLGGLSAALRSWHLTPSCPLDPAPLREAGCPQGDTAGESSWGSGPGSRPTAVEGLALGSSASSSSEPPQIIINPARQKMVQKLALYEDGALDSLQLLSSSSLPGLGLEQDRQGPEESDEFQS
SMILES,IC50 [1] [nM],IC50 [2] [nM],IC50 [3] [nM]
COc1cc2ncccc2cc1NC(=O)c1csc2cncnc12,622,18,
O=C(Nc1cc2cccnc2cc1OC1CCC(O)CC1)c1csc2cncnc12 (stereo not given),,24,123
COc1cc2nc(NCCO)ccc2cc1NC(=O)c1csc2cncnc12,,10,200
O=C(Nc1cc2cccnc2cc1N1CCCCC1)c1csc2cncnc12,,12,
O=C(Nc1cc(Cl)ccc1OC1CCC(O)CC1)c1cnn2cc(O)cnc12 (stereo not given),,23,163

# Molecules with a lower IC50 [2], results first:
IC50 [1] [nM],IC50 [2] [nM],IC50 [3] [nM],SMILES
,5,970,CC(O)C1CCN(c2ccc(Cl)cc2NC(=O)c2cnn3cccnc23)CC1 (stereo not given)
,7,70,O=C(Nc1cc2cccnc2cc1O[C@H]1CC[C@@H](O)CC1)c1csc2cncnc12
,9,200,COc1cc2ncccc2cc1NC(=O)c1cnn2cc(O)cnc12
